Assay results: US20260000669A1, “TREATMENT REGIMEN FOR AUTOIMMUNE DISEASES AND INFLAMMATORY DISEASES” (Merck Patent GmbH, priority 2022, published 2026)
Where two headings read alike, the source gives them in different places.

How the values were obtained:
[1] = mouse model of RA, orally administered; cited from earlier work
[2] = relapsing MS patients; cited from earlier work
[3] = mouse model of SLE, orally administered; cited from earlier work
SARS-CoV-2 [4] = type: in vivo, human
SARS-CoV-2 [5] = test system: SARS-CoV-2
From the text: The clinical study NCT02975349 is a phase II, randomized, placebo-controlled trial to evaluate the safety and efficacy of evobrutinib (M2951) in subjects with relapsing multiple sclerosis (RMS). […] The study was composed of a screening period of 4 weeks, a double blinded treatment period of 48 weeks, with an optional open-label extension (OLE) period of 312 weeks, and a safety follow-up period of 4 weeks post-treatment.
Patients were randomized 1:1:1:1: to receive placebo, oral evobrutinib 25 mg once-daily (QD), 75 mg QD, 75 mg twice-daily (BID), or open-label dimethyl fumarate. Patients who received placebo during the first 24 weeks of the DBP, were switched to evobrutinib 25 mg QD until the end of the double-blind period (i.e., 48 weeks). Patients participating in the OLE after the DBP received EVO 75 mg QD and then, after a mean of 49.8 weeks, switched to EVO 75 mg BID.
For the analysis of pre-vaccination, post-vaccination and post-booster vaccination S1/S2 IgG antibody levels, plasma samples were selected according to the following criteria: • Pre-vaccination: sample taken at the last doctor's visit of the patient before the date when the first COVID-19 vaccine dose was administered • post-vaccination: sample taken at the first doctor's visit of the patient that took place at least 28 days after a complete vaccination cycle (as defined by the manufacturer) was administered (for example, in case of the mRNA COVID vaccine of VAC-OLE I, at least 28 days after the date when the second dose of the mRNA COVID vaccine was administered) • post-booster vaccination: sample taken in the first doctor's visit of the patients that took place at least 7 days after the date when the booster vaccination was administered
A total of 24 patients, fulfilling the following criteria, were included in the analysis and constituted the VAC-OLE I analysis set: • Subjects who were in the OLE and received evobrutinib 75 mg BID, and • had 2 doses of mRNA vaccine against COVID reported as concomitant medication, and • signed the Informed Consent for the vaccination analysis.
Subjects were administered the two doses of vaccine during the course of the study based on investigator's judgement. Of the 24 vaccinated patients: • 20 received the mRNA vaccine by BioNTech/Pfizer • 4 patients received the mRNA vaccine by Moderna.
SARS-CoV-2 antibody levels were determined using the LIAISON® SARS-CoV-2 S1/S2 IgG assay (DiaSorin, Inc); an indirect sandwich chemiluminescent immunoassay that qualitatively detects IgG antibodies to SARS-CoV-2. […] Briefly, magnetic particles coated with recombinant S1 and S2 SARS-CoV-2 proteins were incubated with patients' plasma samples, calibrator samples or control samples. After washing away unbound material, a mouse monoclonal anti-human IgG antibody linked to an isoluminol derivative was added. Following another incubation and wash step, the starter reagents were added triggering a flash chemiluminescence reaction. The resulting light signal, representative of the amount of bound isoluminol-antibody conjugate, was measured by a photo multiplier as relative light units (RLU) and was indicative of the presence of IgG S1/S2 antibodies to SARS-CoV-2 virus. Test results are assessed qualitatively as positive or negative. The lower limit of quantification (LLoQ) in this assay was 3.8 AU/mL. In line with FDA guidance, values below a cutoff of 15 AU/mL (i.e. about 4× above the LLoQ for the assay) were considered as a negative readout.
The primary endpoint of this study was defined as fold changes in levels of S1/S2 IgG antibodies from pre- to post-vaccination.

SARS-CoV-2 [6] = conditions: MS patients, 2 to 4 weeks after second dose of mRNA COVID-19 vaccine; cited from earlier work
[7] = all participants (N=45), VAC-OLE II, evobrutinib 75 mg BID
[8] = booster subgroup (N=14), mRNA booster, VAC-OLE II
[9] = participants that received mRNA vaccines (37), VAC-OLE II
[10] = participants that received non-mRNA vaccines (8), VAC-OLE II
[11] = seronegative subgroup (N=32), VAC-OLE II
[12] = seropositive subgroup (N=13), VAC-OLE II
[13] = overall VAC-OLE I population (N=24), evobrutinib 75 mg BID
[14] = seronegative subgroup (19 patients), VAC-OLE I
[15] = seropositive subgroup (5 patients), VAC-OLE I

Compound: C=CC(=O)N1CCC(CNc2ncnc(N)c2-c2ccc(Oc3ccccc3)cc2)CC1 [evobrutinib, 1-[4-({[6-amino-5-(4-phenoxyphenyl)pyrimidin-4-yl]amino}methyl)piperidin-1-yl]prop-2-en-1-one]
- efficacy (reduction of disease severity and histological damage) [1]: good efficacy
- results in RMS phase II trials [2]: positive results
- efficacy (reduction of disease severity and histological damage) [3]: good efficacy
- participants with >30-fold induction of S1/S2 IgG antibody levels (SARS-CoV-2 [4]; 21 of 45 participants, VAC-OLE II): 47%
- participants with >10-fold increase of S1/S2 IgG antibody levels (SARS-CoV-2 [4]; 38 of 45 participants, VAC-OLE II): 84%
- S1/S2 IgG antibody geometric mean post-vaccination (SARS-CoV-2 [4]; <8 weeks subgroup, VAC-OLE II): 672 AU/mL
- participants with >30-fold change in antibody levels after vaccination (SARS-CoV-2 [4]; >8 and ≤12 weeks subgroup (7 of 19), VAC-OLE II): 37%
- S1/S2 IgG antibody geometric mean post-vaccination (SARS-CoV-2 [4]; >8 week to ≤12 weeks subgroup, VAC-OLE II): 166 AU/mL
- participants with >30-fold change in antibody levels after vaccination (SARS-CoV-2 [4]; >12 weeks group (2/13), VAC-OLE II): 15%
- S1/S2 IgG antibody geometric mean post-vaccination (SARS-CoV-2 [4]; >12 weeks subgroup, VAC-OLE II): 142 AU/mL
- fold increase in anti-COVID-19 antibody levels pre- to post-vaccination (SARS-CoV-2 [4]; all participants (N=45), VAC-OLE II): 45 fold
- S1/S2 IgG antibody level after a complete vaccination cycle, geometric mean (SARS-CoV-2 [4]; [7]): 237.8 AU/mL
- S1/S2 IgG antibody level pre-vaccination, geometric mean (SARS-CoV-2 [4]; [7]): 9.0 AU/mL
- fold change in the geometric mean of S1/S2 IgG antibody (SARS-CoV-2 [4]; assessed >8 week to ≤12 weeks after complete vaccination cycle, VAC-OLE II): 17.7
- fold change in the geometric mean of S1/S2 IgG antibody (SARS-CoV-2 [4]; assessed >12 weeks after complete vaccination cycle, VAC-OLE II): 17.8
- fold change in the geometric mean of S1/S2 IgG antibody (SARS-CoV-2 [4]; assessed ≤8 weeks after complete vaccination cycle, VAC-OLE II): 69.7
- S1/S2 IgG antibody levels after booster vaccination compared to levels after the complete vaccination cycle (SARS-CoV-2 [4]; booster subgroup (N=14), VAC-OLE II): Higher
- geometric mean fold change from post-vaccination to post-booster (SARS-CoV-2 [4]; [8]): 6.3
- geometric mean fold change from pre-vaccination to post-booster (SARS-CoV-2 [4]; [8]): 214
- response to COVID vaccination compared with individuals not under BTK inhibitor treatment (SARS-CoV-2 [4]; conclusion of Example 2, comparison with published data): comparably to healthy individuals
- post-vaccination S1/S2 IgG antibody geometric mean (SARS-CoV-2 [4]; [9]): 247.7 AU/mL
- pre-vaccination S1/S2 IgG antibody geometric mean (SARS-CoV-2 [4]; [9]): 8.5 AU/mL
- post-vaccination S1/S2 IgG antibody geometric mean (SARS-CoV-2 [4]; [10]): 197.1 AU/mL
- pre-vaccination S1/S2 IgG antibody geometric mean (SARS-CoV-2 [4]; [10]): 12.1 AU/mL
- S1/S2 IgG antibody post-vaccination geometric mean level (SARS-CoV-2 [4]; [11]): 133.6 AU/mL
- S1/S2 IgG antibody values prior to vaccination (majority of participants, lower limit of quantification) (SARS-CoV-2 [4]; [11]): 3.8 AU/mL
- S1/S2 IgG antibody geometric mean level after a complete vaccination cycle (SARS-CoV-2 [4]; [12]): 984.4 AU/mL
- S1/S2 IgG antibody pre-vaccination geometric mean level (SARS-CoV-2 [4]; [12]): 55.5 AU/mL
- S1/S2 IgG antibody level, geometric mean, after second vaccination (SARS-CoV-2 [5]; [13]): 209.1 AU/mL
- S1/S2 IgG antibody level, geometric mean, before first vaccination (SARS-CoV-2 [5]; [13]): 6.7 AU/mL
- S1/S2 IgG antibody level post-vaccination, geometric mean (SARS-CoV-2 [5]; sample collected >12 weeks after second vaccination, VAC-OLE I): 74
- S1/S2 IgG antibody level post-vaccination, geometric mean (SARS-CoV-2 [5]; sample collected between 8 and 12 weeks after second dose, VAC-OLE I): 264
- S1/S2 IgG antibody level post-vaccination, geometric mean (SARS-CoV-2 [5]; sample collected less or equal to 8 weeks after second vaccination, VAC-OLE I): 383 AU/mL
- geometric mean fold change of S1/S2 IgG antibody levels (SARS-CoV-2 [5]; seronegative patients, VAC-OLE I): 36.0
- S1/S2 IgG antibody level prior to vaccination (majority of patients, lower limit of quantification) (SARS-CoV-2 [5]; [14]): around 3.8 AU/ml
- S1/S2 IgG antibody level, geometric mean post-vaccination (SARS-CoV-2 [5]; [14]): 155.8 AU/mL
- geometric mean fold change of S1/S2 IgG antibody levels (SARS-CoV-2 [5]; seropositive patients, VAC-OLE I): 18.0
- S1/S2 IgG antibody level, geometric mean after the second vaccination (SARS-CoV-2 [5]; [15]): 639.6 AU/mL
- S1/S2 IgG antibody level, geometric mean pre-vaccination (SARS-CoV-2 [5]; [15]): 35.5 AU/mL

Compound: C=CC(=O)N1CCC[C@@H](n2c(=O)n(-c3ccc(Oc4ccccc4)cc3)c3c(N)nccc32)C1 [tolebrutinib, reference compound]
- results in RMS phase II trials [2]: positive results

Compound: ocrelizumab: B and/or T cell receptor directed antibody; a disease modifying treatment for multiple sclerosis
- S1/S2 IgG antibody levels (SARS-CoV-2 [6]): very low
